# Results from patent publication US20180099931A1 (AbbVie S.à.r.l., priority 2016, published 2018).
# Where two headings read alike, the source gives them in different places.
# Biological target: T1, F508delCFTR (Homo sapiens, UniProt P13569, DEL508-508)
# T1 construct: expressed in transfected cells; host or cells: CFBE41o- human lung-derived epithelial cells (CFBE4lo-F508delCFTR-HRP), doxycycline-inducible
# Experiment: Cell Surface Expression-Horse Radish Peroxidase (CSE-HRP) Assay;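 on Maximum % activity (with co-corrector): co-corrector and positive control are both the same reference corrector at 2 µM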;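 on Maximum % activity (without co-corrector): percent of the 2 µM on-plate positive control corrector response above DMSO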
# Type: cell-based
# Conditions: for Emax / Maximum % activity (with co-corrector): maximum at any tested concentration, normalized to on-plate positive control; for Emax: read-out: Maximum % activity (without co-corrector)
# [1] = test compound without co-corrector
# [2] = test compound without co-corrector, read-out: EC50 (without co-corrector)
# [3] = with co-corrector (2 μM of 3-[(2R,4R)-4-({[1-(2,2-difluoro-1,3-benzodioxol-5-yl)cyclopropyl]carbonyl}amino)-7-methoxy-3,4-dihydro-2H-chromen-2-yl]benzoic acid)
# [4] = with co-corrector (2 μM of 3-[(2R,4R)-4-({[1-(2,2-difluoro-1,3-benzodioxol-5-yl)cyclopropyl]carbonyl}amino)-7-methoxy-3,4-dihydro-2H-chromen-2-yl]benzoic acid), read-out: EC50 (with co-corrector)
# T1 sequence (P13569 with tags, fused parts or gaps DEL508-508): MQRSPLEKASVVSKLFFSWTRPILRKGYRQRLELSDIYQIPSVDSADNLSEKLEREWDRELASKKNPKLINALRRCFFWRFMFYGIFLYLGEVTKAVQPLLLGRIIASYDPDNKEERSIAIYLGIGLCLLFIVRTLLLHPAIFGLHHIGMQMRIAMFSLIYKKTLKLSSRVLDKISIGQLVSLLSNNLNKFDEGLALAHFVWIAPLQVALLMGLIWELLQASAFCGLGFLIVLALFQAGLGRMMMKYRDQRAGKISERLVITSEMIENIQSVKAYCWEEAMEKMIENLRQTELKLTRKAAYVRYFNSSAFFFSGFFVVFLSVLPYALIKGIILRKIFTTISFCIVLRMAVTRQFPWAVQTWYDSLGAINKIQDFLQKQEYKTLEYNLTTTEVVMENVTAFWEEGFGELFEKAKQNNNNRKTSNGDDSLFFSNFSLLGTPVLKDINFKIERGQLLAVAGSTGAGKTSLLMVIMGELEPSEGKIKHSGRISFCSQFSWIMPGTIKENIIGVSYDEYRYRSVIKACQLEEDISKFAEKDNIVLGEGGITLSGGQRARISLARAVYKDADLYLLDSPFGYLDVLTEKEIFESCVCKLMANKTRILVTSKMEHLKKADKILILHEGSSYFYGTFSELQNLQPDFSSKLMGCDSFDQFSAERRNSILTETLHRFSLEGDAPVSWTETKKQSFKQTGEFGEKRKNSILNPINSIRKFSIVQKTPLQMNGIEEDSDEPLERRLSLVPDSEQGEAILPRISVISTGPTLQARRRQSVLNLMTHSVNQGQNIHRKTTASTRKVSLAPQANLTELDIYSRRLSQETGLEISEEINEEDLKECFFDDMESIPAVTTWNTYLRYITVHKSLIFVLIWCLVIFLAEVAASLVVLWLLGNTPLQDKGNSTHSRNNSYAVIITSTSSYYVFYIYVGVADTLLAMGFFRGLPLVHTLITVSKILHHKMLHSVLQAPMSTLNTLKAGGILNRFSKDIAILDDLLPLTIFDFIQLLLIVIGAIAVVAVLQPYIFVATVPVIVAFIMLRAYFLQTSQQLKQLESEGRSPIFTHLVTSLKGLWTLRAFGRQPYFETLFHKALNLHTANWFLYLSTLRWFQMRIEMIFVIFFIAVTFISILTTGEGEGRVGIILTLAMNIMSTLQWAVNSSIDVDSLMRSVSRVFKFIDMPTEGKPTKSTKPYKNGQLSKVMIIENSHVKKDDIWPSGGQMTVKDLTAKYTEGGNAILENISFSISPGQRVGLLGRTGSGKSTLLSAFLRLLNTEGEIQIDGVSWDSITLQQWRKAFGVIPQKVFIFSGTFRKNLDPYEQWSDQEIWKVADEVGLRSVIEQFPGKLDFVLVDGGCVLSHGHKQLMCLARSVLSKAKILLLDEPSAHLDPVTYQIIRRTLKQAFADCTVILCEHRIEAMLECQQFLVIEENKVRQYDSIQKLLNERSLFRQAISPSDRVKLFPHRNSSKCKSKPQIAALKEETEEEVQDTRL
Structure (SMILES),Emax [1] [%],EC50 [2] [µM],Maximum % activity (with co-corrector) [3],EC50 [4] [µM]
COc1nnc(C2CCC2)cc1CN[C@H]1[C@H](C(C)(C)C)[C@@H](C(=O)O)N(C(=O)C2CCCCC2)[C@H]1c1ccccc1 [II-496],< 100,1 to 10,++ (≥150 and <350),1 to 10
COc1ccc(C(C)(C)C)cc1CN[C@H]1[C@H](C(C)(C)C)[C@@H](C(=O)O)N(C(=O)C2(c3cccc(Cl)c3)COC2)[C@H]1c1ccccc1 [II-497],< 100,1 to 10,++ (≥150 and <350),1 to 10
COc1ccc(C(C)(C)C)cc1CN[C@H]1[C@H](C(C)(C)C)[C@@H](C(=O)O)N(C(=O)C23CC(F)(C2)C3)[C@H]1c1ccccc1 [II-498],100 to 200,1 to 10,+++ (≥350),1 to 10
CC(C)(C)[C@H]1[C@H](NCC2(c3ccc4c(c3)OC(F)(F)O4)CC2)[C@H](c2ccccc2)N(C(=O)C2CCCCC2)[C@@H]1C(=O)O [II-499],100 to 200,1 to 10,+++ (≥350),1 to 10
COc1ccc(C23CC(C2)C3)cc1CN[C@H]1[C@H](C(C)(C)OC)[C@@H](C(=O)O)N(C(=O)OC(C)C)[C@H]1c1cccnc1N(C)C [II-501],> 200,1 to 10,+++ (≥350),1 to 10
Cc1cc(C(F)(F)F)cc(N[C@H]2[C@H](C(C)(C)C)[C@@H](C(=O)O)N(C(=O)C3CCCCC3C(F)(F)F)[C@H]2c2cccnc2N(C)C)n1 (some centres unmarked) [II-502],< 100,1 to 10,++ (≥150 and <350),1 to 10
Cc1cc(C(F)(F)F)cc(N[C@H]2[C@H](C(C)(C)C)[C@@H](C(=O)O)N(C(=O)C3CCCC(F)(F)C3)[C@H]2c2cccnc2N(C)C)n1 (some centres unmarked) [II-503],< 100,1 to 10,+++ (≥350),1 to 10
COc1cc(C(F)(F)F)ccc1CN[C@H]1[C@H](C(C)(C)C)[C@@H](C(=O)O)N(C(=O)C2CCCC(F)(F)C2)[C@H]1c1ccccc1 (some centres unmarked) [II-508],100 to 200,1 to 10,+++ (≥350),< 1
COc1ccc(C23CC(C2)C3)cc1CN[C@H]1[C@H](C(C)(C)C)[C@@H](C(=O)O)N(C(=O)[C@H]2CCCC(F)(F)C2)[C@H]1c1ccccc1 [II-509],> 200,< 1,+++ (≥350),< 1
COc1ncc(C(F)(F)F)cc1CN[C@H]1[C@H](C(C)(C)C)[C@@H](C(=O)O)N(C(=O)OC(C)C)[C@H]1c1cccnc1N(C)C [II-510],> 200,1 to 10,+++ (≥350),1 to 10
COc1ccc(C(C)(C)C)cc1CN[C@H]1[C@H](C(C)(C)C)[C@@H](C(=O)O)N(C(=O)OC(C)C)[C@H]1c1cccnc1OC [II-511],100 to 200,1 to 10,+++ (≥350),1 to 10
COc1ncc(C(F)(F)F)cc1CN[C@H]1[C@H](C(C)(C)C)[C@@H](C(=O)O)N(C(=O)OC(C)C)[C@H]1c1cccnc1OC [II-512],100 to 200,1 to 10,+++ (≥350),1 to 10
COc1cc(C(F)(F)F)ccc1CN[C@H]1[C@H](C(C)(C)C)[C@@H](C(=O)O)N(C(=O)OC(C)C)[C@H]1c1cccnc1OC [II-513],100 to 200,1 to 10,+++ (≥350),1 to 10
COc1cc(C(F)(F)F)ccc1CN[C@H]1[C@H](C(C)(C)C)[C@@H](C(=O)O)N(C(=O)OC(C)C)[C@H]1c1cccnc1N(C)C [II-514],100 to 200,1 to 10,+++ (≥350),1 to 10
